# Target: Ube2V2 (Homo sapiens, UniProt Q15819)
# Experiment: T-REX in zebrafish embryos, biotin/streptavidin pulldown of HNEylated Ube2V2
# Type: in vivo
# Settings: human Halo-Ube2V2 mRNA-injected embryos
# Description: Zebrafish cell lysis was performed with similar procedure as mammalian cells: 50 mM HEPES (pH 7.6), 150 mM NaCl, 1% Nonidet P-40, 0.2 mg/ml soybean protease inhibitor (Sigma), and 3× Roche cOmplete, mini, EDTA-free protease inhibitor cocktail by rapid freeze-thaw and votexing with zirconia beads (Bio spec 0.7 mm beads; 11079107zx).
# Total protein concentration from either mammalian cell lysate or zebrafish lysate was determined using Bradford assay with BSA as standard. The lysate was subsequently diluted to 2 mg/mL with a buffer made up of 50 mM HEPES (pH 7.6) and 0.3 mM TCEP, and subjected to Click reaction with biotin azide for 30 min at 37° C. The final concentrations of each components were: 1% SDS, 5% t-BuOH, 200 μM Biotin azide, 2 mM TCEP, 0.9 mM CuSO4 and 0.1 mM Cu(TBTA). The lysate proteins were precipitated by adding 4 volumes of EtOH pre-chilled at −20° C. (EtOH final concentration is 80%). The sample was vortexed and incubated at −80° C. overnight (or at least 4 h) to facilitate precipitation. The precipitant was collected by centrifugation at 21,000×g for 120 min at 4° C. and washed twice with pre-chilled MeOH, once with pre-chilled acetone. […]
# DDR preconditioning occurs in zebrafish embryos. […] Subsequently, the fish were fixed and γ-H2AX levels were measured using whole-mount immunofluorescence.
# Ube2V2, sequence (Q15819 whole entry): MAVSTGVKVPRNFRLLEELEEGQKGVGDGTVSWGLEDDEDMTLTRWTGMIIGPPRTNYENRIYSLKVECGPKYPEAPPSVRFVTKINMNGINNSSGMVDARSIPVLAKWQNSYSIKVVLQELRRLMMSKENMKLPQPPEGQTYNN
structure (smiles),measurement,value
"CCCCCC(O)/C=C/C=O (stereo not shown) [HNE, 4-hydroxynonenal]",HNEylation of Ube2V2 in zebrafish,significantly HNEylated

# From patent US11506670B2, “Method of genome-wide direct identification of electrophile-sensing targets” (Cornell University, priority 2018, dated 2022)
